Active and inactive are the calls of the source. No rule for the calls is given here.
Tested on: HeLa cell cycle, increased S-phase population
Assay: HeLa S-phase population increase, dose response, cell-based, IC50 (AID 1117348)

SMILES | IC50
Clc1ccccc1C(c1ccccc1)(c1ccccc1)n1ccnc1 | > 10 µM (inactive)
CC[C@@]1(O)C(=O)OCc2c1cc1n(c2=O)Cc2cc3c(CN(C)C)c(O)ccc3nc2-1 | 0.082 µM
CN(C)c1ccc2nc3ccc(=[N+](C)C)cc-3sc2c1 | > 10 µM (inactive)
C=C(C)[C@H]1Cc2c(ccc3c2O[C@@H]2COc4cc(OC)c(OC)cc4[C@@H]2C3=O)O1 | > 10 µM (inactive)
CCN(CC)CCNc1ccc(CO)c2sc3ccccc3c(=O)c12 | > 10 µM (inactive)
CCCCCCCCCCOCC(O)CN (centres undefined) | > 10 µM (inactive)
CCN(CCCCOC(=O)c1ccc(OC)c(OC)c1)C(C)Cc1ccc(OC)cc1 (centres undefined) | > 10 µM (inactive)
OC[C@H]1O[C@@H](n2cnc3c(=S)nc[nH]c32)[C@H](O)[C@@H]1O | > 10 µM (inactive)
COC(=O)c1nc(Cl)c(Cl)nc1N | > 10 µM (inactive)
CCCCCCCCCCCC(=O)[O][Sn]([CH2]CCC)([CH2]CCC)[O]C(=O)CCCCCCCCCCC | > 10 µM (inactive)
Fc1ccc(C(OCCN2CCN(CCCc3ccccc3)CC2)c2ccc(F)cc2)cc1 | > 10 µM (inactive)
COCCOC(=O)C1=C(C)NC(C)=C(C(=O)OC/C=C/c2ccccc2)C1c1cccc([N+](=O)[O-])c1 (centres undefined) | > 10 µM (inactive)
COC(=O)Nc1nc2ccc(C(=O)c3cccs3)cc2[nH]1 | > 10 µM (inactive)
O=c1[nH]cc(F)c(=O)[nH]1 | > 10 µM (inactive)
CN(C)CCC=C1c2ccccc2CCc2ccccc21 | > 10 µM (inactive)
O=C1C2CC=CCC2C(=O)N1SC(Cl)(Cl)Cl (centres undefined) | > 10 µM (inactive)
[O-][n+]1ccccc1SSc1cccc[n+]1[O-] | > 10 µM (inactive)
COc1ccc2cc1Oc1ccc(cc1)C[C@H]1c3c(cc4c(c3Oc3cc5c(cc3OC)CCN(C)[C@@H]5C2)OCO4)CCN1C | > 10 µM (inactive)
CC(=O)N(O)CCCCCNC(=O)CCC(=O)N(O)CCCCCNC(=O)CCC(=O)N(O)CCCCCN | > 10 µM (inactive)
CCCCCCCCCCCCCCCC[N+](C)(C)Cc1ccccc1 | > 10 µM (inactive)

SMILES | IC50
O=C(O)CN(CCN(CC(=O)O)CC(=O)O)CCN(CC(=O)O)CC(=O)O | > 10 µM (inactive)
Nc1nc(=S)c2[nH]cnc2[nH]1 | > 10 µM (inactive)
C[C@]12CC[C@@H]3c4ccc(O)cc4CC[C@H]3[C@@H]1CC[C@@H]2OC(=O)CCC1CCCC1 | > 10 µM (inactive)
COc1ccc(-c2nc3ccc(C4=NNC(=O)CC4C)cc3[nH]2)cc1 (centres undefined) | > 10 µM (inactive)
C[C@@H]1C[C@H]2[C@@H]3CCC4=CC(=O)C=C[C@]4(C)[C@@]3(Cl)[C@@H](O)C[C@]2(C)[C@@]1(OC(=O)c1ccco1)C(=O)CCl | > 10 µM (inactive)
COc1cc(NCc2ccc3nc(N)nc(N)c3c2C)cc(OC)c1OC | > 10 µM (inactive)
CCCCC(CC)CN=C(N)NC(N)=NCCCCCCN=C(N)NC(N)=NCC(CC)CCCC (centres undefined) | > 10 µM (inactive)
CN(C)/N=N/c1nc[nH]c1C(N)=O | > 10 µM (inactive)
NC(N)=NN=C(/C=C/c1ccc([N+](=O)[O-])o1)/C=C/c1ccc([N+](=O)[O-])o1 | > 10 µM (inactive)
COc1ccc(-c2ccc3cc(C(=O)O)ccc3c2)cc1C12CC3CC(CC(C3)C1)C2 | > 10 µM (inactive)
Cc1ccc2nc(N)[nH]c(=O)c2c1Sc1ccncc1 | > 10 µM (inactive)
CCCCCCCCCCCCCC[N+](C)(C)C | > 10 µM (inactive)
O=[N+]([O-])c1ccc(O)c2ncccc12 | > 10 µM (inactive)
O=C(O)CCc1nc2ccccc2[nH]1 | > 10 µM (inactive)
NCCCC[C@H](N[C@@H](CCc1ccccc1)C(=O)O)C(=O)N1CCC[C@H]1C(=O)O | > 10 µM (inactive)
CC(CC1c2ccccc2CCc2ccccc21)CN(C)C (centres undefined) | > 10 µM (inactive)
CC(=O)Oc1ccccc1C(=O)Nc1ncc([N+](=O)[O-])s1 | > 10 µM (inactive)
CC(C)n1c(/C=C/[C@@H](O)C[C@@H](O)CC(=O)O)c(-c2ccc(F)cc2)c2ccccc21 | > 10 µM (inactive)
CCN(CC)CCOc1ccccc1C(=O)CCc1ccccc1 | > 10 µM (inactive)

Source: PubChem BioAssay AID1117348 (Cheminformatics & Chemogenomics Research Group (CCRG), …, 2015)
